# From the METLIN SMRT retention time set (Domingo-Almenara et al. 2019)
# Assay: gradient 5% acetonitrile 3 min, to 50% in 2 min, to 85% in 15 min, held 3 min, 100 µL/min
# Conditions: column: Zorbax Extend-C18 2.1 x 50 mm; eluents: water / acetonitrile, 0.1% formic acid
# Summary of the method: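 Each retention time is based on an adduct peak selected computationally and verified by manual inspection. Measurements used HPLC–quadrupole time-of-flight mass spectrometry in positive and negative ionization mode on mixtures of ~100 pure standards. Chromatography ran on a Zorbax Extend-C18 column (2.1 × 50 mm, 1.8 μm) at 100 μL/min with water and acetonitrile, each containing 0.1% formic acid, and dead and dwell volumes of 40 μL and 900 μL.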
row,SMILES,RP-LC retention time [s]
1,COc1ccc(-c2nc(C3CC(=O)N(c4ccc(F)cc4)C3)no2)cc1OC (centres undefined),884
2,CCc1nc(-c2csc(S(=O)(=O)N3CCC(C(=O)NCc4cccs4)CC3)c2)no1,860
3,COc1ccccc1Nc1c(-c2ccc(N(C)C)cc2)nc2cnccn12,833
4,Cc1cc(C)c(CNC(=O)C2CCCN(c3cnc4nccnc4c3)C2)c(C)c1 (centres undefined),819
5,Clc1cccc(-c2nnc(Cc3nc(-c4ccc5c(c4)OCO5)no3)o2)c1,1020
6,CCCCC(=O)Nc1nc(-c2ccc3c(c2)NC(=O)C(C)O3)cs1 (centres undefined),863
7,O=C(c1cc(F)ccc1F)N1CCN(C(=O)c2nnn3c2COC(c2ccc(Cl)cc2)C3)CC1 (centres undefined),937
8,Cc1cccc(-c2nnc(-c3cc(S(=O)(=O)N4CCOCC4)ccc3F)o2)c1,961
9,O=C(CSc1nnc2c(=O)n(-c3ccccc3)ccn12)c1ccc(Br)cc1,881
10,O=C(CN1C(=O)c2ccccc2C1=O)N1CCCN(c2nc3ncccc3o2)CC1,681
11,CCOc1ccc(-n2cc(C(=O)OCc3ccccn3)c3ccccc3c2=O)cc1,750
12,COc1cc2c(cc1/C=C/[N+](=O)[O-])OC(C)C2 (centres undefined),908
13,O=C(N1CCCC1)N1CCN(c2ccccc2F)CC1,762
14,Cc1ccc(-c2nnc(-c3ccccc3Cl)o2)cc1S(=O)(=O)N(C)C,999
15,O=C(c1cccs1)N1CCN(Cc2ccc(=O)n(CC3CC3)c2)CC1,480
16,O=C1CCCc2cc(S(=O)(=O)N3CCC(C(=O)N4CCN(c5ccccc5)CC4)CC3)ccc2N1,754
17,CCn1c(=O)oc2cc(-c3noc(-c4ccc(OC)cc4)n3)ccc21,976
18,O=C(CN1CN(c2ccccc2)c2ncccc2S1(=O)=O)Nc1ccccc1Cl,934
19,CC(C)(C)NCC(O)COc1nsnc1N1CCOCC1 (centres undefined),626
20,Cc1nnc(SCC(=O)NCc2ccccc2)c2nn(-c3ccccc3)c(C)c12,643
21,COc1cccc(OC)c1OCCNCC1COc2ccccc2O1 (centres undefined),767
22,Cc1cc(C)n(CCNC(=O)c2ccc(N3CCOCC3)nn2)n1,572
23,Cn1cc(C(=O)NCCc2cccs2)c(S(=O)(=O)N2CCSCC2)n1,842
24,O=C(NCc1ccccc1)C1CCN(Cc2nncn2-c2ccccc2F)CC1,570

row,SMILES,RP-LC retention time [s]
1,COc1ccc(CN2CCc3nc(N4CCOCC4)ncc3C2)c(OC)c1OC,597
2,O=C(c1cccs1)N1N=C(c2ccc3c(c2)OCO3)CC1c1ccco1 (centres undefined),919
3,O=C(c1nnc(-c2ccc(S(=O)(=O)N3CCCCC3)cc2)o1)N1CCCCCC1,1010
4,O=c1c2c(nc(SCc3ccccn3)n1CCc1ccccc1)CCS2,657
5,Cc1cc(C)c2nc(C)cc(C(=O)N3CCN(c4ccccn4)CC3)c2c1,593
6,Cn1ncc2c3ccccc3n(CC(=O)N3CCN(c4ccccn4)CC3)c2c1=O,591
7,COc1ccc(C2CC(=O)N(c3cccc(F)c3)C(=O)C2)cc1,896
8,Cc1nc(-c2ccc3c(c2)CCN3C(=O)C2CCOC2)cs1 (centres undefined),760
9,C=CCNC(=O)Cc1c(C)n(CC=C)c2nc(-c3ccccc3)nn2c1=O,740
10,CC1CCN(C(=O)Cn2nc(C(=O)N3CCCC3)c3ccccc32)CC1,846
11,CCn1c(=O)c2ccccc2n(Cc2nc(-c3ccccc3Br)no2)c1=O,1020
12,CCc1nc(-c2csc(S(=O)(=O)N3CCC(C(=O)NC(C)CC)CC3)c2)no1 (centres undefined),854
13,CCc1noc(NC(C)=O)c1-c1ccc(OC)c(S(=O)(=O)N2CCN(c3ccccn3)CC2)c1,614
14,CCCN1CCN(CCCNC(=O)C(C)n2c3ccccc3c3cnn(C)c(=O)c32)CC1 (centres undefined),571
15,O=c1n(Cc2ccc(F)cc2)nc2ccc(S(=O)(=O)N3CCOCC3)cn12,785
16,COC1CCN(C(=O)NC(C)C)CC1,599
17,Cc1ccc(F)cc1NS(=O)(=O)c1cc2n(c1)CCN(C(C)C)C2=O,783
18,Cc1cccc(S(=O)(=O)N(C)CC2(C)CCOCC2)c1,918
19,Cc1ccc(-n2nc(C(=O)N3CCN(c4ccccn4)CC3)c3ncn(C)c(=O)c32)cc1,608
20,CC(C)[Si]1(C(C)C)OCC2OC(n3cnc4c(N)ncnc43)C(N)C2O[Si](C(C)C)(C(C)C)O1 (centres undefined),828
21,Fc1ccc(Cc2noc(-c3nc(-c4ccncc4)no3)n2)cc1,943
22,Cc1ccc(-c2ccc(=O)n(Cc3nc(-c4ccc5c(c4)OCO5)no3)n2)cc1,1020
23,CCCc1cc(=O)n(CC(=O)Nc2ncccc2C)cn1,578
24,CCCC1c2nccn2CCCN1C(=O)c1occc1C (centres undefined),611

# Now from value to compound:
row,RP-LC retention time [s],SMILES
1,727,Cc1cccc(NC(=O)N2CCC3(C2)C(=O)Nc2ccccc23)c1 (centres undefined)
2,797,CC(=O)N1c2ccc(S(=O)(=O)N3CCCC3)cc2CC1C(=O)NCCc1ccc(C)cc1 (centres undefined)
3,955,COc1cccc(CN2C(=O)CSc3c(c4ccccc4n3C)C2C(=O)NCCCOC(C)C)c1 (centres undefined)
4,936,CCOC(=O)c1noc2ncnc(NCCc3ccccc3)c12
5,739,Cc1cc(NC(=O)C2(C)Oc3cccnc3NC2=O)ccc1F (centres undefined)
6,762,CC(=O)c1cccc(NC(=O)Cn2ccc3ccc(-c4nnc(C)o4)cc32)c1
7,781,Cc1ccc2[nH]cc(CCNC(=O)CCn3c(=O)c(C)nc4ccccc43)c2c1
8,633,O=S(=O)(c1ccc2c(c1)OCCO2)N1CCC(Cc2nc(-c3cccnc3)n[nH]2)C1 (centres undefined)
9,1000,CCOc1ccc(NC(=O)Nc2nccn(-c3cccc(Cl)c3)c2=O)cc1
10,702,NC(=O)C1CCN(C(=O)CSc2nc3c(c(-c4ccccc4)n2)CCCC3)CC1
11,821,CC(C)(C)c1ccc(-c2nc(N3CCOCC3)c3ccccc3n2)cc1
12,905,CC(CNC(=O)Cn1c(=O)n(C(C)C)c2ccc(S(=O)(=O)N3CCCC3)cc21)c1ccccc1 (centres undefined)
13,767,CN1c2cc(C(=O)NC3CCCC3)ccc2C(=O)N2CCCCC21 (centres undefined)
14,583,CCOC(=O)c1ccc2nc(C)cc(NC(=O)c3ccco3)c2c1
15,1310,Cc1ccc(-n2nc(C)c3sc(N4CCCC(C(=O)Nc5cccc(Cl)c5C)C4)nc32)cc1 (centres undefined)
16,1180,COc1ccc(-c2csc(NC(=O)CSc3nc4c(cc3C#N)CCCC4)n2)cc1
17,645,COc1ccc(-c2cccc(NC(C)=O)c2)nn1
18,786,CCn1ccc2sc(C)c(C(=O)NCc3ccc(OC)cc3)c2c1=O
19,622,CCOC(=O)c1cccc(Nc2ncccc2S(=O)(=O)NC)c1
20,685,CCn1c(=O)c(N2CCCC(C(=O)NC3CCN(Cc4ccccc4)CC3)C2)nc2ccccc21 (centres undefined)
21,873,O=C(Cc1ccc(Br)cc1)N1CCN(c2cc(-c3ccccc3)[nH]n2)CC1

row,RP-LC retention time [s],SMILES
1,622,CC(NC(=O)c1ccc2c(c1)nc1n2CCN(Cc2ccccc2)C1=O)c1ccccn1 (centres undefined)
2,1020,Cc1sc2ncnc(N3CCCCC3)c2c1C(=O)NCc1cc(F)ccc1F
3,657,O=C(Nc1ccc(F)c(Cl)c1)NC1CCCN(c2cc(-c3ccncc3)[nH]n2)C1 (centres undefined)
4,787,CCCNC(=O)NC1CCN(C2=NS(=O)(=O)C(c3ccc(CC)cc3)=C2C)CC1
5,679,Cc1cccn2cc(C(=O)NCc3ccc4c(c3)OCO4)nc12
6,632,N#Cc1cccc(-c2nc(-c3ccc4c(c3)ncn4CCN3CCCCC3)no2)c1
7,752,COc1cc(CNC(=O)C23CCC=C2N(C2CCCC2)C(=O)CC3)cc(OC)c1 (centres undefined)
8,812,Cc1ccc2nc(NC(=O)C3CC(=O)N(c4n[nH]c5cccc(F)c45)C3)sc2c1 (centres undefined)
9,676,O=C(NCC1CCCO1)c1ccc(CN2CCN(Cc3ccc(F)cc3)C(=O)C2=O)cc1 (centres undefined)
10,672,CC(C)C(=O)Nc1ccc(CCc2nc3ccc(C(=O)NC4CCCCC4)cc3[nH]2)cc1
11,1050,CC(C)Oc1ccc(-c2noc(CN3N=NC4C(=O)N(c5cccc(F)c5)C(=O)C43)n2)cc1 (centres undefined)
12,695,CCc1ccc(NC(=O)CSc2ccc(N3CCCC(C(=O)NC4CC4)C3)nn2)cc1 (centres undefined)
13,1030,O=C(Cn1cc(-c2nc(-c3ccc(Cl)cc3)no2)ccc1=O)NC1CCCCC1
14,961,COc1ccc(C2CCCN2C(=O)c2cc(-c3ccco3)on2)cc1 (centres undefined)
15,782,CN1C(=O)c2cc(C(=O)N3CCCCC3)nn2CC1(C)C(=O)NC1CCCCCC1 (centres undefined)
16,601,COc1ccc(-c2c(C(=O)NCCN3CCOCC3)nc3ccccn23)cc1
17,806,O=C(Nc1ccc(F)cc1F)N1CCC(n2cnc3c(Cl)cccc3c2=O)CC1
18,597,O=C(NCc1cccnc1)c1ccc(CN2CCN(Cc3ccc(F)cc3)C(=O)C2=O)cc1
19,893,Cc1ccc2c(c1)N(S(C)(=O)=O)CCC(C(=O)Nc1cccc(OC(C)C)c1)O2 (centres undefined)
20,1280,Cc1ccc(-c2noc(C3CCCN3C(=O)c3ccc(C(C)(C)C)cc3)n2)cc1 (centres undefined)
